Assay [1] concerns the target T1, CgNce103 (Nakaseomyces glabratus, UniProt Q6FTL6).
T1 construct: gene NCE103; recombinant, obtained in-house as previously reported; beta-class zinc enzyme
T1 sequence (Q6FTL6 1-219): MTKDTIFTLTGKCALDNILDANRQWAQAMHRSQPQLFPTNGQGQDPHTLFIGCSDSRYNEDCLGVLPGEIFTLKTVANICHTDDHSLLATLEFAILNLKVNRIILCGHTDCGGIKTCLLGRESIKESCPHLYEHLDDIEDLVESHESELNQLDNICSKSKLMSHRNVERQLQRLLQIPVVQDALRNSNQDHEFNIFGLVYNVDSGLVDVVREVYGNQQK
Briefly: stopped-flow CO2 hydrase assay. Type of assay: biochemical.

For assay [2], the target named is T2, hCA I (Homo sapiens, UniProt P00915).
T2 construct: gene CA1; recombinant, obtained in-house as previously reported
As to the kind of experiment: stopped-flow CO2 hydrase assay. Type of assay: biochemical. The text has this:
stopped-flow CO2 hydrase assay on hCA I

A short description of assay [3]: stopped-flow CO2 hydrase assay. Type of assay: biochemical, Homo sapiens. Particulars: read-out: hCA I.
The test system of assay [4] is T3, C. albicans 5 strains.
T3 construct: 5 clinical isolates
As to the kind of experiment: microbe, parasite or virus in culture. The arrangement: species or system clinical Candida isolates; broth microdilution antifungal MIC, visual growth inhibition, CLSI. Particulars: Candida albicans, 24 h, read-out: Tested Fungi (MIC Values μg/mL) / C. albicans 5 strains. The procedure:
(§1) The in vitro antifungal activities were determined by the broth microdilution method with sabouraud dextrose broth (BBL Microbiology Systems, Cockeysville, MD, USA), as recommended by the by the CLSI [43]. Ninety-six-well polystyrene microtitre plates containing serial dilutions of each compound were inoculated with each microorganism to yield the appropriate density (1–5 × 10^3 cells/mL) in a 100-μL final volume. Each plate included (i) fungi without the addition of the compound, (ii) just the medium, and (iii) just the compound. Topical and systemic antifungal reference drugs, clotrimazole and fluconazole, were inserted in the experiment. The plates were incubated for 24 h at 35 °C. […] Three independent experiments were performed in triplicate. The antimicrobial activity of these thiazolidinones was evaluated versus 24 clinical Gram-positive (S. aureus and S. epidermidis) and Gram-negative (E. coli and Enterobacter spp.) microorganisms. The antifungal activity of these derivatives was then tested versus 16 clinical fungal isolates belonging to the most relevant Candida spp. (C. albicans, C. tropicalis, C. parapsilosis, C. sakè, and C. glabrata). Prior to testing, each isolate was cultured on a selective medium to ensure purity and optimal growth, as previously reported. The isolates were routinely identified by the morphological aspects of colonies and by biochemical identification. The used clinical isolates were collected from specimens of patients at the ‘Azienda Policlinico Umberto I’ (Sapienza University of Rome) and were obtained from hematology/oncology and surgery departments, which also included an intensive care unit. In particular, the samples were isolated from the upper and lower respiratory tract, blood, and indwelling venous catheters; the isolates were identified by conventional methodologies. Participating subjects gave their written informed consent for this study.

Assay [5] has as its system T4, C. glabrata 3 strains.
T4 construct: 3 clinical isolates
Briefly: microbe, parasite or virus in culture. Particulars: Nakaseomyces glabratus, 24 h. The arrangement: species or system clinical Candida isolates; CLSI broth microdilution MIC, Sabouraud dextrose broth, 35 °C, visual complete growth inhibition. Here is the method:
as §1

The subject of assay [6] is T5, C. parapsilosis 2 strains.
T5 construct: 2 clinical isolates
Briefly: microbe, parasite or virus in culture. As to conditions: Lodderomyces parapsilosis, 24 h, read-out: Tested Fungi (MIC Values μg/mL) / C. parapsilosis 2 strains. The arrangement: species or system clinical Candida isolates; CLSI broth microdilution MIC, Sabouraud dextrose broth, 35 °C, visual complete growth inhibition. Here is the method:
as §1

In assay [7] the test system is T6, C. tropicalis 3 strains.
T6 construct: 3 clinical isolates
As to the kind of experiment: microbe, parasite or virus in culture. The arrangement: species or system clinical Candida isolates; CLSI broth microdilution MIC, Sabouraud dextrose broth, 35 °C, visual complete growth inhibition. As to conditions: Candida tropicalis, 24 h, read-out: Tested Fungi (MIC Values μg/mL) / C. tropicalis 3 strains. The procedure:
as §1

The test system of assay [8] is T7, Candida sake C. sakè 3 strains.
T7 construct: 3 clinical isolates
As to the kind of experiment: microbe, parasite or virus in culture. The arrangement: species or system clinical Candida isolates; CLSI broth microdilution MIC, Sabouraud dextrose broth, 35 °C, visual complete growth inhibition. As to conditions: Fermentozyma sake, 24 h. The procedure: as §1

Assay [9] addresses T8, hCA II (Homo sapiens, UniProt P00918).
T8 construct: gene CA2; recombinant, obtained in-house as previously reported
As to the kind of experiment: stopped-flow CO2 hydrase assay. The format is biochemical. The text has this:
stopped-flow CO2 hydrase assay on hCA II

Assay [10] concerns T4, C. glabrata 3 strains. As to the kind of experiment: microbe, parasite or virus in culture. More on the design: species or system clinical Candida isolates; broth microdilution antifungal MIC, visual growth inhibition, CLSI. Particulars: Nakaseomyces glabratus, 24 h, read-out: Tested Fungi (MIC Values μg/mL) / C. glabrata 3 strains. Here is the method: as §1
The subject of assay [11] is T6, C. tropicalis 3 strains. As to the kind of experiment: microbe, parasite or virus in culture. Particulars: Candida tropicalis, 24 h, read-out: Tested Fungi (MIC Values μg/mL) / C. tropicalis 3 strains. More on the design: species or system clinical Candida isolates; broth microdilution antifungal MIC, visual growth inhibition, CLSI. Here is the method:
as §1

Assay [12] relates to T3, C. albicans 5 strains. Briefly: microbe, parasite or virus in culture. More on the design: species or system clinical Candida isolates; CLSI broth microdilution MIC, Sabouraud dextrose broth, 35 °C, visual complete growth inhibition. Particulars: Candida albicans, 24 h. Here is the method: as §1
The subject of assay [13] is T7, Candida sake C. sakè 3 strains. As to the kind of experiment: microbe, parasite or virus in culture. The arrangement: species or system clinical Candida isolates; broth microdilution antifungal MIC, visual growth inhibition, CLSI. As to conditions: Fermentozyma sake, 24 h; read-out: Tested Fungi (MIC Values μg/mL) / C. sakè 3 strains. Here is the method: as §1
Where [14] appears, read: read-out: Tested Fungi (MIC Values μg/mL) / C. glabrata 3 strains.
The mark [15] stands for this setting: read-out: Tested Fungi (MIC Values μg/mL) / C. sakè 3 strains.
[16] abbreviates: read-out: Tested Fungi (MIC Values μg/mL) / C. glabrata 3 strains / 8–32.
Where [17] appears, read: read-out: Tested Fungi (MIC Values μg/mL) / C. sakè 3 strains / 8–32.

Values after ≈ are worked out from the molar mass of the structure shown. Where two headings read alike, the source gives them in different places.

T2 sequence (P00915 2-261): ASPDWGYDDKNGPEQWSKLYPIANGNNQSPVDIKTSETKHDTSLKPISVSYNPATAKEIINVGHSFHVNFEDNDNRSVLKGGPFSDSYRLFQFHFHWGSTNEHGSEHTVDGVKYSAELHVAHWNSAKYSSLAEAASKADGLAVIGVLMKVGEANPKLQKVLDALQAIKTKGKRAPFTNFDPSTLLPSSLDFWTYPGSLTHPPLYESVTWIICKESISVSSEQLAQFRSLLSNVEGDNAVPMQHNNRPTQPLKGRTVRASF

As for `O=C(N/N=C1\SCC(=O)N1c1ccccc1F)C(O)c1ccccc1` (stereo not drawn) [3a], the Ki in [1] is 0.27 µM; in assay [2], > 100 µM; in assay [3] it was > 100 µM. Moreover, the MIC in assay [4] was 4 to 8 µg/mL (≈ 11.1 to 22.3 µM); in assay [5] (setting [14]) it was 16 µg/mL (≈ 44.5 µM); in assay [6] it was 32 µg/mL (≈ 89 µM); in assay [7], 32 µg/mL (≈ 89 µM); in assay [8] (setting [15]), 16 µg/mL (≈ 44.5 µM).
In the case of `O=C(N/N=C1\SCC(=O)N1c1ccc(Cl)cc1)C(O)c1ccccc1` (stereo not drawn) [3f], the Ki in [9] is 62.9 µM; in [1], 0.51 µM; in assay [2], > 100 µM. The MIC in assay [4] was 4 to 8 µg/mL (≈ 10.6 to 21.3 µM); in [10], 4 to 8 µg/mL (≈ 10.6 to 21.3 µM); in assay [6] it was 16 µg/mL (≈ 42.6 µM); in [7], 32 µg/mL (≈ 85.1 µM); in assay [8] (setting [15]) it was 16 µg/mL (≈ 42.6 µM).
Take `O=C(N/N=C1\SCC(=O)N1c1cccc(Br)c1)C(O)c1ccccc1` (stereo not drawn) [3h]: the Ki in assay [9] is 55.7 µM; in assay [1], 0.82 µM; in assay [2] it was > 100 µM. The MIC in assay [4] is 8 to 16 µg/mL (≈ 19 to 38.1 µM); in assay [10], 8 to 32 µg/mL (≈ 19 to 76.1 µM); in [11] it was 8 to 32 µg/mL (≈ 19 to 76.1 µM); in assay [6] it was 8 µg/mL (≈ 19 µM); in assay [8] (setting [15]), 16 µg/mL (≈ 38.1 µM).
For the molecule `OC(Cn1cncn1)(Cn1cncn1)c1ccc(F)cc1F` [Fluconazole], the MIC in assay [12] (read-out: Tested Fungi (MIC Values μg/mL) / C. albicans 5 strains / 32–128), in assay [5] (setting [16]), in [6], in [7] and in assay [8] (setting [17]) was 2 µg/mL (≈ 6.53 µM) in each case.
On to `CC1S/C(=N\NC(=O)C(O)c2ccccc2)N(c2cccc(Br)c2)C1=O` (stereo not drawn) [4e], for which the Ki in assay [9] is 68.2 µM; in assay [1], 0.56 µM; in assay [2], > 100 µM. The MIC in assay [4] was 4 to 16 µg/mL (≈ 9.21 to 36.8 µM); in assay [10] it was 4 to 8 µg/mL (≈ 9.21 to 18.4 µM); in assay [11], 4 to 8 µg/mL (≈ 9.21 to 18.4 µM); in assay [13] it was 4 to 8 µg/mL (≈ 9.21 to 18.4 µM); in assay [6], 32 µg/mL (≈ 73.7 µM).
Consider `O=C(N/N=C1\SCC(=O)N1c1cccc(F)c1)C(O)c1ccccc1` (stereo not drawn) [3b], for which the Ki in assay [1] is 0.48 µM; in assay [2] it was > 100 µM; in assay [3] it was > 100 µM. Further, the MIC in assay [4] was 4 to 8 µg/mL (≈ 11.1 to 22.3 µM); in assay [5] (setting [14]), 16 µg/mL (≈ 44.5 µM); in [6], 32 µg/mL (≈ 89 µM); in assay [7] it was 32 µg/mL (≈ 89 µM); in assay [8] (setting [15]) it was 16 µg/mL (≈ 44.5 µM).
As to `O=C(N/N=C1\SCC(=O)N1c1ccc(F)cc1)C(O)c1ccccc1` (stereo not drawn) [3c], the Ki in [9] is 76.7 µM; in [1], 0.38 µM; in [2], > 100 µM. The MIC in assay [4] is 4 to 8 µg/mL (≈ 11.1 to 22.3 µM); in assay [5] (setting [14]), 16 µg/mL (≈ 44.5 µM); in [6] it was 32 µg/mL (≈ 89 µM); in assay [7] it was 32 µg/mL (≈ 89 µM); in assay [8] (setting [15]) it was 16 µg/mL (≈ 44.5 µM).
On to `Clc1ccccc1C(c1ccccc1)(c1ccccc1)n1ccnc1` [Clotrimazole], for which the MIC in [12] (read-out: Tested Fungi (MIC Values μg/mL) / C. albicans 5 strains / 8–32 / 32–128), in assay [5] (setting [16]), in [6], in assay [7] and in [8] (setting [17]) was 2 µg/mL (≈ 5.8 µM) throughout.
Consider `O=C(N/N=C1\SCC(=O)N1c1ccc(Br)cc1)C(O)c1ccccc1` (stereo not drawn) [3i], for which the Ki in assay [9] is 47.4 µM; in [1] it was 0.87 µM; in assay [2] it was > 100 µM. The MIC was 8 to 16 µg/mL (≈ 19 to 38.1 µM) in assay [4]; 4 to 8 µg/mL (≈ 9.52 to 19 µM) in assay [10]; 16 µg/mL (≈ 38.1 µM) in [6]; 16 µg/mL (≈ 38.1 µM) in [7]; 16 µg/mL (≈ 38.1 µM) in assay [8] (setting [15]).

The record behind these values is article PMC7215574, “Development of Thiazolidinones as Fungal Carbonic Anhydrase Inhibitors” (International Journal of Molecular Sciences, 2020).
